Measurements from patent publication US11180474B2 (BRISTOL-MYERS SQUIBB COMPANY, priority 2016, dated 2021).

Key:
human TLR7 = target: T1, human TLR7 (Homo sapiens, UniProt Q9NYK1); experiment: TLR7 inhibition reporter assay (HEK-Blue cells, SEAP reporter, gardiquimod stimulation); assay type: cell-based; settings: HEK-Blue cells overexpressing human TLR7, gardiquimod 7.5 μM
T1 construct: host or cells: HEK-Blue cells
T1 sequence (Q9NYK1 27-1049): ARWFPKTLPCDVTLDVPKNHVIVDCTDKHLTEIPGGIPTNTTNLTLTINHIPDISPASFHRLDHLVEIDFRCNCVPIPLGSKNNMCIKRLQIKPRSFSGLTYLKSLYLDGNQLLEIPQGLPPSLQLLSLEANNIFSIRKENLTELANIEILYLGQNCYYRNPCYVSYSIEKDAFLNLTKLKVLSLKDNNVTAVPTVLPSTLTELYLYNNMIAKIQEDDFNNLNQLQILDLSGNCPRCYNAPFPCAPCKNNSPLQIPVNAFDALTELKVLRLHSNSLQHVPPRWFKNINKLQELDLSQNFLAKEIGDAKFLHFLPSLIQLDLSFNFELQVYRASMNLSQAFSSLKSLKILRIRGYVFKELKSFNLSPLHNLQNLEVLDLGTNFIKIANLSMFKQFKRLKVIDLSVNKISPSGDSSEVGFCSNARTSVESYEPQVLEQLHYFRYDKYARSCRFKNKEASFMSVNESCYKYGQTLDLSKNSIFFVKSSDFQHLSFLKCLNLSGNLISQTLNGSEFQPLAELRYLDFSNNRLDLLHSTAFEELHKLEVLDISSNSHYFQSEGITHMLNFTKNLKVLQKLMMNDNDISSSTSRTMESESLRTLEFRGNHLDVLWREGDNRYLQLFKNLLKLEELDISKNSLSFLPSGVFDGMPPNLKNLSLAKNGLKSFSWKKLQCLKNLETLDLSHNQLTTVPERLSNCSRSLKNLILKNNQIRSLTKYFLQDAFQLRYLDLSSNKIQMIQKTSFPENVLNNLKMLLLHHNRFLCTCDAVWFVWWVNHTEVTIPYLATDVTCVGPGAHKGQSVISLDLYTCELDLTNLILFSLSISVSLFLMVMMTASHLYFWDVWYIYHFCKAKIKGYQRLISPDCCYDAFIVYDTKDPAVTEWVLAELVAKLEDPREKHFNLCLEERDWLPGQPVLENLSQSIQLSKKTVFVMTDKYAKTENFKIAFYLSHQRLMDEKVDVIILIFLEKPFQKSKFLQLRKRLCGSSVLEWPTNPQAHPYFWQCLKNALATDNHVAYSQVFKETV
Experimental: (§1) TLR7/8/9 Inhibition Reporter Assays
Briefly, cells are seeded into Greiner 384 well plates (15000 cells per well for TLR7, 20,000 for TLR8 and 25,000 for TLR9) and then treated with test compounds in DMSO to yield a final dose response concentration range of 0.05 nM-50 μM. […] After a 22 hour incubation at 37° C., 5% CO2, SEAP levels are determined with the addition of HEK-Blue™ Detection reagent (Invivogen), a cell culture medium that allows for detection of SEAP, according to manufacturer's specifications. The percent inhibition is determined as the % reduction in the HEK-Blue signal present in wells treated with agonist plus DMSO alone compared to wells treated with a known inhibitor.

human TLR9 = target: T2, human TLR9 (Homo sapiens, UniProt Q9NR96); experiment: TLR9 inhibition reporter assay (HEK-Blue cells, SEAP reporter, ODN2006 stimulation); assay type: cell-based; settings: HEK-Blue cells overexpressing human TLR9, ODN2006 5 nM
T2 construct: host or cells: HEK-Blue cells
T2 sequence (Q9NR96 26-1032): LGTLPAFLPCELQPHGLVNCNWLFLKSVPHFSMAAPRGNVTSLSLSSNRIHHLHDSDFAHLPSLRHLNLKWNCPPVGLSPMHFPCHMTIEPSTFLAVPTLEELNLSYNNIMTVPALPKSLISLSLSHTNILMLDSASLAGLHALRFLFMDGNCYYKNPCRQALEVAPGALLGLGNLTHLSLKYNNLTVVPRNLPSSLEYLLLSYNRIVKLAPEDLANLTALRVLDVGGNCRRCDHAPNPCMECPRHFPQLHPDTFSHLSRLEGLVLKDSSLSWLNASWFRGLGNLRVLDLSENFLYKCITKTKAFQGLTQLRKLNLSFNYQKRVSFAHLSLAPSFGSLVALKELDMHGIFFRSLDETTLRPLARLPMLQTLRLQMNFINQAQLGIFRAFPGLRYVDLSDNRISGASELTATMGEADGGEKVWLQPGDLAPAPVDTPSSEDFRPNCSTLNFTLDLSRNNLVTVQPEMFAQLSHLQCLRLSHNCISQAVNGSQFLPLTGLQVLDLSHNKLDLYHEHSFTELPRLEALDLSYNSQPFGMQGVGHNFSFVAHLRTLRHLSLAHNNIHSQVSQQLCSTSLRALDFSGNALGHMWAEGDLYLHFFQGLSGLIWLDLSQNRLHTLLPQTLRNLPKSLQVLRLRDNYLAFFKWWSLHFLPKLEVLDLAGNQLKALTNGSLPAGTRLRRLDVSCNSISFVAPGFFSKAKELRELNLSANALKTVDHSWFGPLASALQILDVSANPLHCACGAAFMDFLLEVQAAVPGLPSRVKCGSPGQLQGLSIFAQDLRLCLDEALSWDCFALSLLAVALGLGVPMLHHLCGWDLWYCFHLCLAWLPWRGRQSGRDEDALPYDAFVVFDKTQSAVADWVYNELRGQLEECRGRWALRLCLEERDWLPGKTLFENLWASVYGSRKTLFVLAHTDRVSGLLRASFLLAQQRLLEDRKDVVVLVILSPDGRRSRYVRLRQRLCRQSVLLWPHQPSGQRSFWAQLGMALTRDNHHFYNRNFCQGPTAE
Experimental: as §1
HEK-Blue™-cells (Invivogen) overexpressing human TLR7, TLR8 or TLR9 receptors were used for screening inhibitors of these receptors using an inducible SEAP (secreted embryonic alkaline phosphatase) reporter gene under the control of the IFN-β minimal promoter fused to five NF-κB and AP-1-binding sites. Briefly, cells are seeded into Greiner 384 well plates (15000 cells per well for TLR7, 20,000 for TLR8 and 25,000 for TLR9) and then treated with test compounds in DMSO to yield a final dose response concentration range of 0.05 nM-50 μM. After a 30 minute compound pre-treatment at room temperature, the cells are then stimulated with a TLR7 ligand (gardiquimod at a final concentration of 7.5 μM), TLR8 ligand (R848 at a final concentration of 15.9 μM) or TLR9 ligand (ODN2006 at a final concentration of 5 nM) to activate NF-κB and AP-1 which induce the production of SEAP. After a 22 hour incubation at 37° C., 5% CO2, SEAP levels are determined with the addition of HEK-Blue™ Detection reagent (Invivogen), a cell culture medium that allows for detection of SEAP, according to manufacturer's specifications. The percent inhibition is determined as the % reduction in the HEK-Blue signal present in wells treated with agonist plus DMSO alone compared to wells treated with a known inhibitor.

COc1ccc(-c2[nH]c3ccc(C4CCN(C5CCCN(C6COC6)CC5)CC4)cc3c2C)cc1OC (stereo not drawn) [Example 96, 2-(3,4-dimethoxyphenyl)-3-methyl-5-(1-(1-(oxetan-3-yl)azepan-4-yl)piperidin-4-yl)-1H-indole]
IC50 (human TLR7): 2.53 µM | IC50 (human TLR9): 0.186 µM

COc1ccc(-c2[nH]c3ccc(C4CCN(C5CCCN(CC(C)C)C5)CC4)cc3c2C)cc1OC (stereo not drawn) [Example 417, 2-(3,4-dimethoxyphenyl)-5-(1′-isobutyl-[1,3′-bipiperidin]-4-yl)-3-methyl-1H-indole]
IC50 (human TLR7): 1.18 µM | IC50 (human TLR9): 0.565 µM

COc1ccc(-c2[nH]c3ccc(C4CCN(CCN(C)C5COC5)CC4)cc3c2C)cc1OC [Example 109, N-(2-(4-(2-(3,4-dimethoxyphenyl)-3-methyl-1H-indol-5-yl)piperidin-1-yl)ethyl)-N-methyloxetan-3-amine]
IC50 (human TLR7): ≥ 50 µM | IC50 (human TLR9): 17 µM

COc1ccc(-c2[nH]c3ccc(C4CCN(C5CCNC5)CC4)cc3c2C)cc1OC (stereo not drawn) [Example 104, 2-(3,4-dimethoxyphenyl)-3-methyl-5-(1-(pyrrolidin-3-yl)piperidin-4-yl)-1H-indole]
IC50 (human TLR7): 2.17 µM | IC50 (human TLR9): 1.05 µM

COc1ccc(-c2[nH]c3ccc(C4CCN(Cc5cncn5C)CC4)cc3c2C)cc1OC [Example 40, 2-(3,4-dimethoxyphenyl)-3-methyl-5-(1-((1-methyl-1H-imidazol-5-yl)methyl)piperidin-4-yl)-1H-indole]
IC50 (human TLR7): 0.512 µM | IC50 (human TLR9): 2.01 µM

COc1ccc(-c2[nH]c3ccc(C4CCN(C5CCN(CCC(C)C)CC5)CC4)cc3c2C)cc1OC [Example 77, 2-(3,4-dimethoxyphenyl)-5-(1′-isopentyl-[1,4′-bipiperidin]-4-yl)-3-methyl-1H-indole]
IC50 (human TLR7): 0.522 µM | IC50 (human TLR9): 0.218 µM

COc1ccc(-c2[nH]c3ccc(C4CCN(C5CCN(C6CCOCC6)CC5)CC4)cc3c2C)cc1OC [Example 26, 2-(3,4-dimethoxyphenyl)-3-methyl-5-(1′-(tetrahydro-2H-pyran-4-yl)-[1,4′-bipiperidin]-4-yl)-1H-indole]
IC50 (human TLR7): 0.348 µM | IC50 (human TLR9): 0.318 µM

CCc1c(-c2ccc(OC)c(OC)c2)[nH]c2ccc(C3CCN(C(=O)CN4CCN(C(=O)C5CCCO5)CC4)CC3)cc12 (stereo not drawn) [Example 172, 1-(4-(2-(3,4-dimethoxyphenyl)-3-ethyl-1H-indol-5-yl)piperidin-1-yl)-2-(4-(tetrahydrofuran-2-carbonyl)piperazin-1-yl)ethan-1-one]
IC50 (human TLR7): 0.263 µM | IC50 (human TLR9): 19.3 µM

CNCCN1CCC(c2ccc3[nH]c(-c4ccc(OC)c(OC)c4)c(CC4CC4)c3c2)CC1 [Example 117, 2-(4-(3-(cyclopropylmethyl)-2-(3,4-dimethoxyphenyl)-1H-indol-5-yl)piperidin-1-yl)-N-methylethanamine di-trifluoroacetic acid]
IC50 (human TLR7): 1.34 µM | IC50 (human TLR9): 0.882 µM

COc1ccc(-c2[nH]c3ccc(C4CCN(C(C)c5ccccc5)CC4)cc3c2C)cc1OC (stereo not drawn) [Example 27, 2-(3,4-dimethoxyphenyl)-3-methyl-5-(1-(1-phenylethyl)piperidin-4-yl)-1H-indole]
IC50 (human TLR7): 0.85 µM | IC50 (human TLR9): 2.8 µM

CCc1c(-c2ccc(OC)c(OC)c2)[nH]c2ccc(C3CCN(C(=O)CNCC(C)(C)CO)CC3)cc12 [Example 164, 1-(4-(2-(3,4-dimethoxyphenyl)-3-ethyl-1H-indol-5-yl)piperidin-1-yl)-2-((3-hydroxy-2,2-dimethylpropyl)amino)ethan-1-one]
IC50 (human TLR7): 0.16 µM | IC50 (human TLR9): 2.13 µM

COc1ccc(-c2[nH]c3ccc(C4CCN(CCN(C)CC5CC5)CC4)cc3c2C)cc1OC [Example 112, N-(cyclopropylmethyl)-2-(4-(2-(3,4-dimethoxyphenyl)-3-methyl-1H-indol-5-yl)piperidin-1-yl)-N-methylethan-1-amine]
IC50 (human TLR7): 0.25 µM | IC50 (human TLR9): 0.319 µM

COc1ccc(-c2[nH]c3ccc(C4CCN(Cc5csc(N)n5)CC4)cc3c2C)cc1OC [Example 14, 4-((4-(2-(3,4-dimethoxyphenyl)-3-methyl-1H-indol-5-yl)piperidin-1-yl)methyl)thiazol-2-amine]
IC50 (human TLR7): 2.11 µM | IC50 (human TLR9): 1.09 µM

COc1ccc(-c2[nH]c3ccc(C4CCN(C5COC5)CC4)cc3c2C)cc1OC [Example 7, 2-(3,4-dimethoxyphenyl)-3-methyl-5-(1-(oxetan-3-yl)piperidin-4-yl)-1H-indole]
IC50 (human TLR7): 2.16 µM | IC50 (human TLR9): 0.569 µM

COc1ccc(-c2[nH]c3ccc(C4CCN(C5CCCNCC5)CC4)cc3c2C)cc1OC (stereo not drawn) [Example 103, 5-(1-(azepan-4-yl)piperidin-4-yl)-2-(3,4-dimethoxyphenyl)-3-methyl-1H-indole]
IC50 (human TLR7): 0.344 µM | IC50 (human TLR9): 0.157 µM

COc1ccc(-c2[nH]c3ccc(C4CCN(Cc5cccnc5)CC4)cc3c2C)cc1OC [Example 47, 2-(3,4-dimethoxyphenyl)-3-methyl-5-(1-(pyridin-3-ylmethyl)piperidin-4-yl)-1H-indole]
IC50 (human TLR7): 0.589 µM | IC50 (human TLR9): 1.08 µM

COc1ccc(-c2[nH]c3ccc(C4CCN(C5CCN(CCCSC)CC5)CC4)cc3c2C)cc1OC [Example 53, 2-(3,4-dimethoxyphenyl)-3-methyl-5-(1′-(3-(methylthio)propyl)-[1,4′-bipiperidin]-4-yl)-1H-indole]
IC50 (human TLR7): 0.188 µM | IC50 (human TLR9): 0.116 µM

CCCCN1CCC(N2CCC(c3ccc4[nH]c(-c5ccc(OC)c(OC)c5)c(C)c4c3)CC2)CC1 [Example 82, 5-(1′-butyl-[1,4′-bipiperidin]-4-yl)-2-(3,4-dimethoxyphenyl)-3-methyl-1H-indole]
IC50 (human TLR7): 0.145 µM | IC50 (human TLR9): 0.165 µM
